Each structure is given as a SMILES string.

As usually defined, the melting point is the temperature of the solid-liquid transition. `C#Cc1ccc(-c2nc(C(=O)OC)c(Cl)c(N)c2Cl)cc1` [Compound 34] registered a melting point of 164.2 to 166.8 °C.

Consider `C=Cc1c(C(=O)OC)nc(-c2ccc(C(F)(F)F)c(F)c2F)c(F)c1N` [Compound 53, methyl 4-amino-6-(2,3-difluoro-4-(trifluoromethyl)phenyl)-5-fluoro-3-vinylpicolinate], for which the melting point was 118 to 120 °C.

`COC(=O)c1nc(-c2cc(F)c(I)cc2F)cc(N)c1Cl` [Compound 56] yielded a melting point of 142 to 144 °C.

As to `C=Cc1c(C(=O)OC)nc(-c2ccc(Br)cc2)c(F)c1N` [Compound 57, methyl 4-amino-6-(4-bromophenyl)-5-fluoro-3-vinylpicolinate], the melting point is 93 to 94 °C.

The compound `COC(=O)c1nc(-c2ccc(I)c(F)c2)cc(N)c1Cl` [Compound 66, methyl 4-amino-3-chloro-6-(3-fluoro-4-iodophenyl)picolinate] showed a melting point of 141 to 143 °C.

The compound `Cc1c(-c2ccc(Br)cc2)nc(C(=O)O)c(Cl)c1N` [Compound 78, 4-Amino-6-(4-bromophenyl)-3-chloro-5-methylpicolinic acid] displayed a melting point of 185.5 to 187 °C.

For the compound `COC(=O)c1nc(-c2ccc(C#N)cc2)c(C)c(N)c1Cl` [Compound 83, Methyl 4-amino-3-chloro-6-(4-cyanophenyl)-5-methylpicolinate], the melting point is 145 to 148 °C.

Regarding `COC(=O)c1nc(-c2ccc(Br)cc2F)cc(N)c1Cl` [Compound 93], the melting point lay within 98.9 to 101.6 °C.

Turning to `Cc1c(-c2ccc(OC(F)F)cc2)nc(C(=O)O)c(Cl)c1N` [Compound 94, 4-Amino-3-chloro-6-(4-(difluoromethoxy)phenyl)-5-methylpicolinic acid], the melting point lay within 158.5 to 159.5 °C.

`COC(=O)c1nc(-c2cc(F)c(I)cc2F)c(Br)c(N)c1Cl` [Compound 100] gave a melting point of 145 to 147 °C.

`COC(=O)c1nc(-c2cc(F)c(I)cc2F)nc(N)c1OC` [Compound 101] showed a melting point of 193 to 194 °C.

The compound `COC(=O)c1nc(-c2ccc(Br)c(F)c2)c(C)c(N)c1Cl` [Compound 112, Methyl 4-amino-6-(4-bromo-3-fluorophenyl)-3-chloro-5-methylpicolinate] showed a melting point of 134 to 137 °C.

As for `Cc1c(-c2ccc(I)cc2)nc(C(=O)O)c(Cl)c1N` [Compound 116, 4-Amino-3-chloro-6-(4-iodophenyl)-5-methylpicolinic acid], the melting point lay within 179.5 to 181 °C.

`COc1c(N)nc(-c2cc(F)c(I)cc2F)nc1C(=O)O` [Compound 119] gave a melting point of 131 to 132 °C.

Compound `C#Cc1ccc(-c2cc(N)c(Cl)c(C(=O)OC)n2)cc1` [Compound 126] showed a melting point of 158.9 to 161.2 °C.

Turning to `COC(=O)c1nc(-c2cc(F)c(Br)cc2F)cc(N)c1Cl` [Compound 127, methyl 4-amino-6-(4-bromo-2,5-difluorophenyl)-3-chloropicolinate], the melting point lay within 174 to 176 °C.

Compound `Nc1cc(-c2cc(F)c(I)cc2F)nc(C(=O)O)c1Cl` [Compound 131] displayed a melting point of 173 to 175 °C.

`COC(=O)c1nc(-c2ccc(I)cc2)c(C)c(N)c1Cl` [Compound 136, methyl 4-amino-3-chloro-6-(4-iodophenyl)-5-methylpicolinate] came in with a melting point of 115 to 118 °C.

`COC(=O)c1nc(-c2ccc(C#N)c(F)c2)c(C)c(N)c1Cl` [Compound 155, Methyl 4-amino-3-chloro-6-(4-cyano-3-fluorophenyl)-5-methylpicolinate] displayed a melting point of 177 to 180 °C.

Regarding `COC(=O)c1nc(-c2ccc(C(N)=O)cc2)c(F)c(N)c1Cl` [Compound 192], the melting point fell in the range of 192 to 195 °C.

`COC(=O)c1nc(-c2cc(F)c(F)cc2F)c(F)c(N)c1Cl` [Compound 200, Methyl 4-amino-3-chloro-5-fluoro-6-(2,4,5-trifluorophenyl)picolinate]: the melting point was 143.5 to 144.5 °C.

(Values after patent US9113629B2, “4-amino-6-(4-substituted-phenyl)-picolinates and 6-amino-2-(4-substituted-phenyl)-pyrimidine-4-carboxylates and their use as herbicides” (DOW AGROSCIENCES LLC, priority 2013, dated 2015).)
